pIC50: −log10 of the molar value.
Tests used:
Assay type in all cases: in vitro ADME
[1] = tested on: T1, P-gp; experiment: MDCK-MDR1 P-gp efflux and permeability; parameters: efflux ratio at 2 h / Papp at 2 h: dose or concentration left out as unconfirmed; conditions: for P-gp ER / efflux ratio at 2 h: MDCK-MDR1 efflux ratio; for Papp at 2 h / efflux ratio at 2 h: dog; for Papp at 2 h: MDCK-MDR1; for efflux ratio at 2 h: read-out: P-gp ER
T1 construct: host or cells: MDR1-MDCK cell monolayers
Method: In-vitro determination of blood-brain barrier penetration potential
Blood-brain barrier penetration was determined using MDR1-MDCK cell monolayers by Absorption Systems, following their protocol. In short, compounds were incubated […] final […]
concentration on one side of the cell monolayer for 2 hours. Compounds concentration on either side of the monolayer was determined by LC-MS/MS and apparent permeability and efflux ratio

[2] = target: T2, CYP1A2 (Homo sapiens, UniProt P05177); experiment: CYP inhibition, 1A2
T2 sequence (P05177 1-516): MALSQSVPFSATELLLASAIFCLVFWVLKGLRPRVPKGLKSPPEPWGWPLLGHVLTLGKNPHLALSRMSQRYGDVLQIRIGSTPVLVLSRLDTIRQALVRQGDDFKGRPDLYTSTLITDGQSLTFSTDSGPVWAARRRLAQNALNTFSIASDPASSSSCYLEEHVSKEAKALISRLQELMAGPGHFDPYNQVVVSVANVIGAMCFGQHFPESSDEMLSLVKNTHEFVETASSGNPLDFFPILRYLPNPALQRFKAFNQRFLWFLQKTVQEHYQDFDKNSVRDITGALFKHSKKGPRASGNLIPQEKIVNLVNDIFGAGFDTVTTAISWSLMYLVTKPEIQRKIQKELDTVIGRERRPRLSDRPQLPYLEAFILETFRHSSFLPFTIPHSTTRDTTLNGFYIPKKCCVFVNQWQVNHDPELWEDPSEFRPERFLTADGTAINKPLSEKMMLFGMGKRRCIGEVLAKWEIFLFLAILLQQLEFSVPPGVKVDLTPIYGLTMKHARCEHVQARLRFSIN

[3] = target: CYP2C9 (Homo sapiens, UniProt P11712); experiment: CYP inhibition, 2C9
[4] = Plasma protein binding, human; conditions: pH 7.4, read-out: fu,plasma human
Method: Plasma protein binding and Brain homogenate binding: Determination of fraction unbound (f u) in plasma was conducted in vitro via equilibrium dialysis using HTDialysis (HTD) membrane plates. The top half of the plate was filled with 100 uL of Dubelco’s Phosphate Buffered Saline, pH 7.4 (DPBS). Compounds were diluted into plasma from each species (5 µM final concentration), which was aliquoted in triplicate to the ‘bottom half’ of the prepared HTD plate wells. The HTD plate was sealed and incubated for 6 hours at 37 °C. Following incubation, each well (both top and bottom halves) were transferred (20 µL) to the corresponding wells of a 96-shallow-well (V-bottom) plate. The daughter plates were then matrix-matched (DPBS side wells received equal volume of plasma, and plasma side wells received equal volume of DPBS), and extraction solution (120 µL; acetonitrile containing 50 nM carbamazepine as IS) was added to all wells of both daughter plates to precipitate protein and extract test article. The plates were then sealed and centrifuged (3500 rcf) for 10 minutes at ambient temperature. Supernatant (60 µL) from each well of the daughter plates was then transferred to the corresponding wells of new daughter plates (96-shallow-well, V bottom) containing water (Milli-Q, 60 µL/well), and the plates were sealed in preparation for LC-MS/MS analysis (see LC-MS/MS analysis method below).
The unbound fraction (f u) was calculated following the equation below, and mean values for each species were calculated from 3 replicates. […]
Fraction unbound for both plasma and brain samples was determined using Equation 4.
Equation 4 Determination of fraction unbound in plasma.

[5] = Predicted hepatic clearance, human hepatic microsomes
Method: Intrinsic clearance: Human or rat hepatic microsomes (0.5 mg/mL) and 1 µM test compound were incubated in 100 mM potassium phosphate pH 7.4 buffer with 3 mM MgCl2 at 37 °C with constant shaking. After a 5 min preincubation, the reaction was initiated by the addition of NADPH (1 mM). At selected time intervals (0, 3, 7, 15, 25, and 45 min), aliquots were taken and subsequently placed into a 96-well plate containing cold acetonitrile with internal standard (50 ng/mL carbamazepine). Plates were then centrifuged at 3000 rcf (4 °C) for 10 min, and the supernatant was transferred to a separate 96-well plate and diluted 1:1 with water for LC/MS/MS analysis. The in vitro half-life ( 1/2, min, Eq. 1), intrinsic clearance (CLint, mL/min/kg, Eq. 2), and subsequent predicted hepatic clearance (CLhep, mL/min/kg, Eq. 3) was determined employing the […]
where k represents the slope from linear regression analysis of the natural log percent remaining of a test compound as a function of incubation time […]
(2) CLint = in vitroT1/2 x mg microsomes x gram liver x kg body wt ascale-up factors: of 20 (human) or 45 (rat) […]
where Qh (hepatic blood flow, mL/min/kg) is 21 (human) or 70 (rat).
LC/MS/MS Bioanalysis of Samples from Plasma Protein Binding and Intrinsic Clearance […]
Samples were analyzed on a Thermo Electron TSQ Quantum Ultra triple quad mass spectrometer (San Jose, CA) via electrospray ionization (ESI) with two Themo Electron Accella pumps (San Jose, CA), and a Leap Technologies CTC PAL autosampler (Carrboro, NC). Analytes were separated by gradient elution on a dual column system with two Thermo Hypersil Gold (2.1 x 30 mm, 1.9 µm) columns (San Jose, CA) thermostated at 40 °C. HPLC mobile phase A was 0.1% formic acid in water and mobile phase B was 0.1% formic acid in acetonitrile. The gradient started […]
for 0.2 min; returned to 10% B in 0.1 min. The total run time was 1.3 min and the HPLC flow rate was 0.8 mL/min. […]

Chain of CYP2C9 (P11712 whole entry): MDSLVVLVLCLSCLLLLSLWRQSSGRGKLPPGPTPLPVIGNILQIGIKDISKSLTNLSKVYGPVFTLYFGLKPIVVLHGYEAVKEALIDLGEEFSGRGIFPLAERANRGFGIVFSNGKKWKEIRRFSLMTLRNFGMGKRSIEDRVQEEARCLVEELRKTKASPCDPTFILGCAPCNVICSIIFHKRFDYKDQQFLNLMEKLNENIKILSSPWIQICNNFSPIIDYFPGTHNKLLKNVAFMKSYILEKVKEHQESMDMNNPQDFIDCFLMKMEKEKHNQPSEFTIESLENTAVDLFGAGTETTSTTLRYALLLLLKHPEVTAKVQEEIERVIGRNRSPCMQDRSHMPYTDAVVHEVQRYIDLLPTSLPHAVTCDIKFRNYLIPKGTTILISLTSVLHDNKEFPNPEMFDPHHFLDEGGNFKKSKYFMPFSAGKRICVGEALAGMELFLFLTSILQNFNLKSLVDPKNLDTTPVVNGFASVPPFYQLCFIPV

Compound | P-gp ER [1] | Papp at 2 h [1] [×10⁻⁶ cm/s] | efflux ratio at 2 h [1] | pIC50 [2] | pIC50 [3] | fraction unbound at 6 h, 5 µM [4] | Predicted CLhep, human [5] [mL/min/kg]
Cn1ccc(-c2ccc(Cc3cc(C(=O)NC4CCOCC4)nc4ccsc34)cc2)n1 [compound 12] | 0.8 | 26.8 | 0.8 | < 4.52 | 4.78 | 0.005 | 7.5
Cn1ccc2nc(C(=O)NC3CCOCC3)cc(Cc3ccc(-c4cc[nH]n4)cc3)c21 [compound 24] |  | 2 | 31.9 | < 4.52 | < 4.52 | 0.047 | 12.8
Cn1ccc(-c2ccc(Cc3cc(C(=O)NC4CCOCC4)nc4ccn(C)c34)cc2)n1 [compound 11] | 3.5 | 12.8 | 3.5 | < 4.52 | 4.55 | 0.016 | 12

Source: publication PMC11413853, “Discovery of VU6007496: Challenges in the Development of an M1 Positive Allosteric Modulator Backup Candidate” (ACS Chemical Neuroscience, 2024)
